Assay results reported in patent US20260234165A1, “MACROCYCLIC COMPOUNDS, PREPARATION METHOD THEREFOR, AND USE THEREOF” (GENFLEET THERAPEUTICS (SHANGHAI) INC., priority 2004, published 2026).

How the values were obtained:
[1] = Assay for stability in liver microsomes; assay type: in vitro ADME; conditions: human liver microsomes
Method: This experiment was intended to investigate the metabolic stability of the test compounds in human liver microsomes. The materials used in the experiment included 10 mM solutions of the test compounds and the control sample, human liver microsomes, and reduced nicotinamide adenine dinucleotide phosphate (NADPH) powder. In the experiment, a 100 mM potassium phosphate buffer was used as the buffer system.
The liver microsome working solution was prepared by diluting the liver microsome stock solution to 0.75 mg/mL using the 100 mM potassium phosphate buffer. Then, 5 μL of the 10 mM stock solution of the test compound was taken, and 195 μL of methanol was added. The mixture was well mixed to prepare a working solution A with a concentration of 0.25 mM.
Subsequently, the working solution A was diluted to 1.5 μM using the liver microsome working solution to prepare a compound-liver microsome mixed solution. Additionally, NADPH powder was dissolved in a 100) mM potassium phosphate buffer to prepare a 6 mM NADPH solution. The compound-liver microsome mixed solution was dispensed into a 96-well plate at 30 μL/well, with labeled time points of 0 min, 30 min, and 60 min. For 0-min samples, 180 μL of acetonitrile containing 100 ng/mL tolbutamide and 15 μL of the NADPH solution were added directly. The 96-well plate and the NADPH solution were then preheated under a 37° C. water bath for 5 min. After the preheating, 15 μL of the NADPH solution was added to each of the 30-min and 60-min sample wells. The plate was gently shaken for mixing and then incubated under the 37° C. water bath for the corresponding time. After the incubation was completed. 180 μL of acetonitrile containing 100 ng/mL tolbutamide was added to each sample well. The plate was sealed with a sealing film, shaken for 10 min (800 rpm/min), and then centrifuged for 15 min (4000 rpm). After the centrifugation, 50 μL of the supernatant was taken and added to a 96-well plate containing 150 μL of deionized water, and then the plate was sealed and shaken for 10 min (800 rpm) for uniform mixing. Subsequently sample analysis was performed using liquid chromatography-tandem mass spectrometry (LC-MS/MS).
The elimination rate constant and clearance rate of the test compound in liver microsomes were calculated using the following formulas: Remaining rate (%)=(peak area ratio of the compound to internal standard at any time point/peak area ratio of the compound to internal standard at 0 min)×100%,^4. T1/2=0.693/ke, where ke is the elimination rate constant and T1/2 is the half-life. Liver microsome intrinsic clearance rate (CLint(mic))=0.693/(T1/2× microsome protein concentration (mg/mL)). Liver intrinsic clearance rate (CLint(liver))=CLint(mic)×microsome protein-to-liver weight ratio (mg/g)×liver-to-body weight ratio (g/kg). In the formulas, CLint(mic) is the liver microsome intrinsic clearance rate, CLint(liver) is the liver intrinsic clearance rate, and CL(liver) is the liver clearance rate. For humans, the microsome protein-to-liver weight ratio was 45 mg/g, and the liver-to-body weight ratio was 20.7 g/kg.

[2] = Pharmacokinetic study in rats; assay type: in vivo, Sprague-Dawley (SD) rats; conditions: Sprague-Dawley, rat, plasma, male SD rats
Description: A total of 6 healthy adult male Sprague-Dawley (SD) rats were provided by Zhejiang Vital River Laboratory Animal Technology Co., Ltd. For each test compound, 6 healthy adult male SD rats were selected and randomly divided into 2 groups: an intravenous administration (IV) group and an intragastric administration (PO) group. The LC-MS/MS method was used to determine the drug concentrations in the plasma of rats at different time points after intravenous and intragastric administration of the test compounds. This experiment was intended to investigate the pharmacokinetic performance of the test compounds in rats and to evaluate the pharmacokinetic characteristics. Each drug used in the experiment was prepared from the test compound powder: An appropriate amount of test compound powder was weighed out, and appropriate amounts of DMSO, a 10% aqueous Solutol HS 15 solution, and a 6% aqueous HP-β-CD solution were sequentially added according to a volume ratio of 5:10:85. The mixture was vortexed and sonicated until clarification. The final concentration of the drug in the IV group was 0.5 mg/mL, and the final concentration of the drug in the PO group was 1 mg/mL; the concentrations could be adjusted according to actual needs. For the drug in the PO group of Z504, an appropriate amount of test compound powder was weighed out, and an appropriate amount of 0.5% MC+0.2% Tween 80 aqueous solution was added. The mixture was well mixed by vortexing to give a 1 mg/mL homogeneous suspension: the concentration could be adjusted according to actual needs.
All experimental rats were fasted overnight, and food intake was resumed 4 h after administration. For the rats in the IV group, the administration volume was set at 2 mL/kg, with Z554 and Z915 administered at a dose of 0.5 mg/kg and the other compounds at a dose of 1 mg/kg. For the rats in the PO group, the administration volume was 10 mL/kg and the dose was 10 mg/kg. The administration amount was adjusted according to the body weight of the rats on the day of administration. In the experiment, blood samples were collected from the rats in the IV group at multiple time points (0.0833 h, 0.25 h, 0.5 h, 1 h, 2 h, 4 h, 7 h, and 24 h) after administration, while blood samples were collected from the PO group at 0.25 h, 0.5 h, 1 h, 2 h, 4 h, 7 h, and 24 h after administration, with approximately 100 μL collected each time via the orbital blood collection method.
The blood samples were placed in centrifuge tubes containing EDTA-K2 and centrifuged at 8000 rpm for 4 min within 30 min to separate the supernatant plasma. The resulting plasma samples were stored at −20° C. for later use. For sample analysis, 20 μL of each of plasma samples and calibration standards was added to a 96-well plate, and 160 μL of acetonitrile containing 100 ng/mL tolbutamide was added. The samples were vortexed for 5 min for uniform mixing, and then centrifuged at 4000 rpm for 15 min. After the centrifugation was completed, 50 μL of supernatant was added to a 96-well plate containing 150 μL of deionized water. The plate was then sealed and shaken for uniform mixing. Sample analysis was performed by LC-MS/MS.
The sampling volume could be adjusted according to actual needs, but the final concentration should be kept unchanged.

half-life at 1 µM ([1]; NADPH, 37° C., 0/30/60 min): 11.8 min | CLint scaled at 1 µM ([1]; liver intrinsic clearance rate): 136 mL/min/kg | clearance ([2]; IV, dose 1 mg/kg): 42.8 mL/min/kg | AUC ([2]; PO (intragastric), dose 10 mg/kg, read-out: AUC): 1220 ng·h/mL | Cmax ([2]; PO (intragastric), dose 10 mg/kg, read-out: Cmax): 365 ng/mL
SMILES: CCn1c(-c2cc(N3CCN(C)CC3)cnc2[C@H](C)OC)c2c3cc(ccc31)-c1csc(n1)C[C@H](NC(=O)[C@H]1[C@H](C)[C@@H]1C)C(=O)N1CCC[C@H](N1)C(=O)OCC(C)(C)C2 (atropisomer, axis not shown; (Ra)) [Control compound 1, (1r,2R,3S)—N-((6^3S,Z)-1^1-ethyl-(Ra)-1^2-(2-((S)-1-methoxyethyl)-5-(4-methylpiperazin-1-yl)pyridin-3-yl)-10,10-dimethyl-5,7-dioxo-6^1,6^2,6^3,6^4,6^5,6^6-hexahydro-1^1H-8-oxa-2(4,2)-thiazola-1(5,3)-indola-6(1,3)-pyridazinacycloundecaphane-4-yl)-2,3-dimethylcyclopropane-1-carboxamide, reference compound]
